Columns and labels:
in vivo [1] = details: male, Sprague-Dawley, rat, iv, 1 mg/kg
in vivo [2] = details: male, Sprague-Dawley, rat, iv, 1 mg/kg; remark: listed apart in the source
in vivo [3] = details: male, Sprague-Dawley, rat, iv, 1 mg/kg; remark: listed apart in the source
in vivo [4] = details: male, Sprague-Dawley, rat, iv, 1 mg/kg; remark: listed apart in the source
in vivo [5] = details: male, Sprague-Dawley, rat, po, 10 mg/kg
in vivo [6] = details: male, Sprague-Dawley, rat, po, 10 mg/kg; remark: listed apart in the source
in vivo [7] = details: male, Sprague-Dawley, rat, po, 10 mg/kg; remark: listed apart in the source
in vivo [8] = details: male, Sprague-Dawley, rat, po, 10 mg/kg; remark: listed apart in the source

For `O=C(Cc1ccccc1F)Nc1cccc(Sc2ccc3c(/C=C/c4ccccn4)n[nH]c3c2)c1`, the AUC(0-t) at 24 h (in vivo [1]) was 1590 ng·h/mL, the MRT last at 24 h (in vivo [2]) was 1.62 h and the Cmax at 24 h (in vivo [3]) was 1470 ng/mL. The Tmax at 24 h (in vivo [4]) was 1.8 min, the AUC(0-t) at 24 h (in vivo [5]) was 1670 ng·h/mL and the MRT last at 24 h (in vivo [6]) was 2.73 h. It also gave a Cmax at 24 h (in vivo [7]) of 484 ng/mL and a Tmax at 24 h (in vivo [8]) of 1.67 h.

— ChEMBL document CHEMBL5614461, “Design, synthesis and biological evaluation of indazole derivatives as VEGFR-2 kinase inhibitors with anti-angiogenic properties” (Eur J Med Chem, 2024)
